Entries after “also recorded” stand apart in the source; their conditions may differ.
Key:
[1] = system: rat optic nerve derived OPCs; test: High content imaging assay of OPC differentiation (MBP immunostaining, OPERA); type: cell-based; settings: for induction of OPC differentiation (MBP staining): OPCs in differentiation medium (2 ng/ml PDGF), 6 days
Experimental: FIG. 1A-C. […] The calculated EC50 values were determined using appropriate Graphpad Prism 5.0 curve fitting software. […] OPCs were plated in 384 well plates at 1000 cells per well in OPC media containing basal PDGF-αα (2 ng/mL) and treated with serial dilutions of compounds. Following six days of compound treatment, cells were fixed and subjected to immunofluorescence analysis using anti-myelin basic protein (MBP) antibody. Image acquisition and quantification of MBP staining was performed using the OPERA imaging system.
FIG. 11A-B. Screen to identify inducers of OPC differentiation. (A) OPCs were maintained as proliferating A2B5-positive cells under basal growth conditions (Neurobasal medium, B27 supplement without Vitamin A, non-essential amino acids, L-Glutamine, 30 ng/ml PDGF). OPCs were plated in basal differentiation media (Neurobasal medium, B27 supplement without Vitamin A, non-essential amino acids, L-Glutamine, 2 ng/ml PDGF), treated with DMSO (<0.1%) or thyroid hormone (1 uM), fixed after 6 days in culture, and stained using antibodies for CNP, O4, or MBP. […] (B) Screen strategy using A2B5 positive OPCs cultured under basal differentiation conditions and treated with compounds for 6 days to identify small molecules that induce the differentiation of OPCs to mature, MBP expressing oligodendrocytes.
FIG. 12A-B. Primary hit confirmation. (A) Dose response assay used to confirm primary screening hits and determine potency (EC50). (EC50) is defined as the concentration that results in a half maximal increase in the percentage of total cells that express MBP as detected by immunostaining. […] Cells were fixed and immunostained using antibodies for MBP. Error bars represent standard deviations from 3 replicate experiments. […]
FIG. 21. […] OPCs were plated in differentiation medium (2 ng/ml PDGF) and treated with various concentrations of compounds for 6 days. Cells were fixed and immunostained for MBP.
A large-scale small molecule screen was conducted to identify small molecules that promote the differentiation of oligodendrocyte precursor cells (OPCs) to a mature myelinating fate. High content imaging was used to detect in-well differentiation of rat optic nerve derived OPCs. Rat optic nerve derived OPCs were expanded en masse in OPC media containing 30 ng/mL PDGFαα. To screen for small molecule inducers of OPC differentiation, OPCs (cultured for fewer than 15 passages) were plated in poly-D-lysine coated 384 well culture plates in OPC Media containing 2 ng/mL PDGFαα and immediately treated with compounds at a final concentration of 6 μM (0.6% DMSO). Compound treated cells were incubated at 37° C., 5% CO2 for 6 days. At the end of 6 days, cells were fixed in 4% paraformaldehyde and subjected to immunofluorescence analysis. Anti-Myelin Basic Protein monoclonal antibody (a.a. 129-138, clone 1 monoclonal antibody, Millipore) (1:1000 dilution) in blocking buffere solution (3% BSA, 0.3% Triton X-100 in PBS) was added to fixed and washed cells and incubated at 4° C. overnight.

OPCs [2] = test: qRT-PCR of MBP and MOG expression in compound treated OPCs; type: cell-based, rat; settings: EC90 concentrations, 6 days
Source text: FIG. 2A-C. […] (A) Western blot analysis of OPCs treated with compounds at EC90 concentrations for 6 days. Total protein was isolated from cell pellets and probed for myelin basic protein (MBP) and myelin oligodendrocyte glycoprotein (MOG) using specific antibodies. (B-C) Quantitative RT-PCR (qRT-PCR) analysis of OPCs treated with compounds at EC90 concentrations for 6 days. Total RNA was isolated from cell pellets and reverse transcribed. MBP and MOG expression was quantified using specific probes and Taqman-based qRT-PCR. Expression was normalized to the internal controls β-actin and GAPDH. Fold change in gene expression over DMSO treated control cells is plotted for MBP (B) and MOG (C).

OPCs [3] = test: Western blot of MBP and MOG in compound treated OPCs; type: cell-based, rat; settings: OPCs treated 6 days
Source text: FIG. 2A-C. Neurotransmitter receptor modulating agents induce the differentiation of OPCs to a myelinating oligodendrocyte cell fate. (A) Western blot analysis of OPCs treated with compounds at EC90 concentrations for 6 days. Total protein was isolated from cell pellets and probed for myelin basic protein (MBP) and myelin oligodendrocyte glycoprotein (MOG) using specific antibodies. (B-C) Quantitative RT-PCR (qRT-PCR) analysis of OPCs treated with compounds at EC90 concentrations for 6 days. Total RNA was isolated from cell pellets and reverse transcribed. MBP and MOG expression was quantified using specific probes and Taqman-based qRT-PCR. Expression was normalized to the internal controls β-actin and GAPDH. Fold change in gene expression over DMSO treated control cells is plotted for MBP (B) and MOG (C).
FIG. 13. […] After 6 days in culture, cells were analyzed for MBP and MOG expression by Western blot.

OPCs [4] = test: Immunofluorescence analysis of mature oligodendrocyte markers (MBP, MOG, CNP, GalC, O1, O4); type: cell-based, rat; settings: OPCs treated 6 days
Source text: FIG. 3. Immunofluorescence analysis of compound treated OPCs using mature oligodendrocyte specific markers. Immunofluorescence staining using specific antibodies for MBP, MOG, and 2′,3′-cyclic nucleotide 3′ phosphodiesterase (CNP). Nuclei were identified using DAPI.
FIG. 4. Immunofluorescence analysis of compound treated OPCs using mature oligodendrocyte specific markers. Immunofluorescence staining using specific antibodies for galactocereberoside (GalC), oligodendrocyte marker O1 (O1) and oligodendrocyte marker O4 (O4). Nuclei were identified using DAPI.
FIG. 14. Compound treatment induces the differentiation of OPCs to mature oligodendrocytes. […] Cells were fixed and immunostained for MBP, MOG, CNP, GalC, O1, or O4.
Immunofluorescence was also used to confirm that the hits were able to induce oligodendrocyte maturation.

muscarinic receptor = test: Carbachol co-treatment in compound induced OPC differentiation (MBP staining); type: cell-based, rat; settings: compounds at EC90 (benztropine 2.3 uM), serial dilutions of carbachol, 6 days
Experimental: (§1) Following 6 days of treatment, cells were fixed and stained for MBP. Plates were imaged using the OPERA high content screening system and MBP staining was quantified as described. […] OPCs were plated in 384-well plates at 5000 cells per well in media containing basal PDGF-αα. Cells were equilibrated with Ca^2+ sensitive Fluo-3AM® dye in HBSS for 30 min. […] Ca^2+ influx was immediately measured using the FLIPR TETRA® system.
OPCs express mAChRs, predominantly subtypes M1, M3, and M5 (F. Ragheb et al., J Neurochem, 77, 1396 (2001)). […] Activation of M1 and M3 mAChRs is coupled to downstream signal transduction events through phospholipase C, which results in increased intracellular calcium concentrations (F. Ragheb et al., J Neurochem, 77, 1396 (2001)) (FIG. 23C). M2 and M4 mAChR activation inhibits adenylatecyclase, leading to decreased intracellular cAMP levels (C. C. Felder, FASEB J, 9, 619 (1995); M. Lopez-Ilasaca et al., Science, 275, 394 (1997)). […] Acetylcholine is a known regulator of OPC proliferation and, as such, muscarinic receptor subtypes represent a reasonable class of therapeutic targets for the modulation of OPC proliferation and differentiation (F. De Angelis et al., Dev Neurobiol, (2011)).

[5] = system: M1/M3 muscarinic receptors
Experimental: as §1
(A-C) OPCs were plated in differentiation media for 12 hours. […] (C) Atropine, a muscarinic antagonist, serves as a positive control. (D) OPCs were plated in differentiation medium for 12 hours. A cAMP-HTRF assay was performed using the cAMP dynamic 2 kit. […] IBMX was added as a cAMP stabilizer, and forskolin was a positive control.

PLP induced EAE mice = system: PLP induced EAE mice
Experimental: (A-E) SJL mice were immunized with proteolipid peptide (PLP) and pertussis toxin and monitored daily with scoring on the standard clinical EAE scale (0-5). Compounds were administered daily for the duration of the study in saline at 10 mg/kg via intra-peritoneal injection (0.1 ml), starting on the day of the appearance of clinical EAE symptoms (day 10). […] Mean clinical EAE score and standard error of mean (SEM) are shown for each study group.
FIG. 25. […] EAE was induced in mice using PLP and pertussis toxin. […] Prophylactic dosing is defined as administration of compound commenced on the day of PLP injection. Error bars indicate standard deviation of the mean within each group of 8 mice.
(A-F) EAE was induced in mice using PLP and pertussis toxin. […] Error bars indicate standard deviation of the mean within each group of 8 mice.
(A-F) EAE was induced in mice by injecting PLP in complete Freund's adjuvant (CFA) and pertussis toxin, and the animals were scored daily for clinical severity of disease on a scale of 0-5. […] Error bars indicate standard deviation of the mean within each group of 8-10 mice.
10 week old SJL mice were immunized with PLP emulsion and pertusis toxin to induce EAE. […] Compounds were administered daily via intraperitoneal injection of 100 ul in sterile saline at 10 mg/kg alone or in combination with mycophenolate motefil in sterile saline at pH 5 at 20 mg/kg. Compound administration was initiated at disease onset (day 10) while mycophenolate motefil administration was initiated on Day 14. The mice were scored daily on a standard EAE scale of 0-5.
This model is most commonly used to evaluate the potential efficacy of immunomodulatory agents, but can also be used to determine the effectiveness of promyelinating agents that function by enhancing OPC differentiation (M. Fernandez et al., Proc Natl Acad Sci U.S.A, 101, 16363 (2004); X. Lee et al., J Neurosci, 27, 220 (2007); reviewed in R. J. Franklin, C. Ffrench-Constant, Nat Rev Neurosci, 9, 839 (2008)). […] We next evaluated efficacy when the drug is dosed therapeutically, by starting daily injections at the first sign of disease onset.
For the treatment of MS, an OPC differentiation inducing drug would most likely be introduced clinically as part of a combination therapy with an immunosuppressive drug. […] The former reduces T-cell proliferation and alters cytokine expression (A. Noronha, A. Toscas, M. A. Jensen, J Neuroimmunol, 46, 145 (1993); A. Noronha, A. Toscas, M. A. Jensen, Ann Neurol, 27, 207 (1990)), while the latter is an S1P agonist that regulates T-cell trafficking (V. Brinkmann et al., J Biol Chem, 277, 21453 (2002); V. Brinkmann et al., Nat Rev Drug Discov, 9, 883 (2010)).

[6] = system: total splenocytes stimulated with CD3; test: T-cell activation (CD69, CD25) and proliferation (CFSE) in vitro; type: cell-based, mouse; settings: versus DMSO
Source text: (A-F) Total splenocytes were isolated from mice and stimulated with CD3 and analyzed by flow cytometry for expression of T-cell activation markers CD69 and CD25 and T-cell proliferation using CFSE. (A) Unstimulated cells. (B) DMSO treated cells. […] The numbers represent percentage gated populations positive for the given marker.
The primary immunological processes involved in MS and EAE are T-cell mediated and the primary treatment paradigms are based on immunomodulatory drugs (T. Kopadze et al., Arch Neurol, 63, 1572 (2006); J. M. Greer et al., J Immunol, 180, 6402 (2007), M. P. Pender and J. M. Greer, curr Allergy Asthma Rep, 7, 285 (2007)).

Compound	percentage of resulting MBP-positive cells ([1]; OPC sample cultured with agent at maximum potency, listed as GBT12935)	induction of OPC differentiation (MBP staining) [1]	induction of MBP expression (qRT-PCR) over DMSO (OPCs [2])	induction of MOG expression (qRT-PCR) over DMSO (OPCs [2])	MBP and MOG expression (Western blot) (OPCs [3])	markers of mature myelinating oligodendrocytes (MBP, MOG, CNP, GalC, O1, O4) by immunofluorescence (OPCs [4])	effect of carbachol on compound induced OPC differentiation (muscarinic receptor)	effect on carbachol induced Ca2+ influx [5]	mean maximal clinical EAE score in relapse, day 25 (PLP induced EAE mice; SJL mice, scale 0-5, compounds 10 mg/kg i.p. daily from day 10, mycophenolate mofetil 20 mg/kg from day 14, mean ± SEM)	clinical severity versus vehicle, dosing after disease onset (therapeutic mode) (PLP induced EAE mice; compounds 10 mg/kg i.p. daily from first EAE symptoms, mycophenolate 20 mg/kg from day 14)	T-cell activation (CD69, CD25) [6]	T-cell proliferation (CFSE) [6]	effect of carbachol on compound induced OPC differentiation (muscarinic receptor; listed as carbapentane)
c1ccc(CCCN2CCN(CCOC(c3ccccc3)c3ccccc3)CC2)cc1 [GBR12935]	over 15%	promote OPC differentiation	two-fold	two-fold	positive	confirmed the presence of multiple markers of mature myelinating oligodendrocytes	did not inhibit; also recorded: no effect	no effect					
COc1c(C)c2c(c(O)c1C/C=C(\C)CCC(=O)OCCN1CCOCC1)C(=O)OC2 [Mycophenolate mofetil, mycophenolate mofetil]									0.7±0.3	decrease in severity of the relapse	suppresses the activation and proliferation of T-cells	suppresses T-cell proliferation	
CCN(CC)CCOCCOC(=O)C1(c2ccccc2)CCCC1 [carbetapentane]		promote OPC differentiation	two-fold	two-fold	positive	confirmed the presence of multiple markers of mature myelinating oligodendrocytes	inhibited	inhibit					dose dependent inhibition
OCc1cc(C(O)CNCCCCCCOCCCCc2ccccc2)ccc1O (stereo not drawn) [salmeterol]		promote OPC differentiation	two-fold	two-fold	positive	confirmed the presence of multiple markers of mature myelinating oligodendrocytes	did not inhibit; also recorded: no effect	no effect					
